# Columns and labels:
# [1] = system: BMP-2 protein in hBMSCs; assay: BMP-2 protein level in hBMSCs by western blot; format: cell-based, human; details: 1000 μM 4-AP
# Procedure: FIGS. 2A-2B. Western blot analysis of BMP-2 protein. Incubation of hBMSCs in Dulbecco's modified Eagle's medium supplemented with 10% FBS and penicillin/streptomycin (100 U/mL penicillin and […] streptomycin) in the presence of 1000 μM 4-AP increased BMP-2 protein at day 3, 7, and 14. The blots were stripped and reprobed with anti-GAPDH antibody. FIG. 2A: Representative image of a western blot of BMP-2 at day 3, 7, and 14. FIG. 2B: Densitometric analysis was carried out and the BMP-2 was normalized with GAPDH to calculate fold change. Data are presented as mean±SEM (n=3). Values are significant at *p<0.05, Abbreviations used; 4—AP-4-aminopyridine, BMP-2—bone morphogenetic protein-2, GAPDH-glyceraldehyde-3-phosphate dehydrogenase. Protein level by western blot: Total protein was extracted from hBMSCs with RIPA lysis buffer at the end of 3, 7, and 14 days of 4-AP treatment. The protein concentrations of cell lysates were determined using Pierce BCA Protein Assay kit (Thermo Fischer Scientific). Total cell lysates containing equal amounts of protein were denatured with SDS reducing buffer. The denatured proteins were separated on 10% polyacrylamide gel and transferred to a PVDF membrane. The blots were blocked and probed with primary and secondary antibodies, followed by visualization of bands by chemiluminescence peroxidase substrate. The BMP-2 band intensities were analyzed by ImageJ software (FIGS. 2A and 2B).
# [2] = system: BMP-2 gene expression in human fetal osteoblasts (hFOB); assay: BMP-2 gene expression in human fetal osteoblasts (hFOB) by quantitative real-time PCR; format: cell-based; details: 1000 μM 4-AP for 3 days, normalized with β-actin
# Procedure: FIG. 3. 4-AP upregulates BMP-2 gene expression in human fetal osteoblasts (hFOB). […] The gene expression levels were normalized with β-actin and was then used to calculate fold change in 4-AP treated compared to control. Data are presented as mean±SEM (n=3). Values are significant at *p<0.05. Abbreviations used; 4-AP—4-aminopyridine. Human fetal osteoblasts (hFOB) were cultured in growth medium supplemented with 4-AP for 3 days. Total RNA was isolated from the cells at the end of treatment, converted to cDNA, and the gene expression of bone morphogenetic protein-2 (BMP-2) was analyzed by quantitative real-time PCR (FIG. 3).
# [3] = system: BMP-2 gene expression in human bone marrow mesenchymal stem cells (hBMSCs); assay: BMP-2 gene expression in hBMSCs by quantitative real-time PCR; format: cell-based; details: 1000 μM 4-AP
# Procedure: FIG. 1. 4-AP upregulates BMP-2 expression in human bone marrow mesenchymal stem cells (hBMSCs). hBMSCs were incubated in Dulbecco's modified Eagle's medium supplemented with 10% FBS and penicillin/streptomycin (100 U/mL penicillin and […] streptomycin) in the presence of 1000 μM 4-AP induced expression of BMP-2 gene. BMP-2 gene expression was increased at day 3 and remained high at day 7 and day 14. The gene expression levels of BMP-2 were normalized with β-actin and were then used to calculate fold change in 4-AP treated compared to control. Data are presented as mean±SEM (n=3). Values are significant at *p<0.05, **p<0.01. Abbreviations used; BMP-2 —bone morphogenetic protein-2. Human bone marrow mesenchymal stem cells (hBMSC) were cultured in growth medium supplemented with 4-AP for 3, 7, and 14 days. Total RNA was isolated from the cells at the end of treatment, converted to cDNA, and the gene expression of bone morphogenetic protein-2 (BMP-2) was analyzed by quantitative real-time PCR. Gene expression by quantitative real-time PCR: Quantitative real-time PCR was carried out to determine gene expression of BMP-2 by hBMSCs incubated in Dulbecco's modified Eagle's medium with 10% fetal bovine serum (FBS) and penicillin/streptomycin (100 U/mL penicillin and […] streptomycin) at a humidified atmosphere of 5% CO2 under 37° C. Cell cultures were supplemented with 1000 μM 4-AP for 3, 7, and 14 days. Total RNA was isolated from the cells and converted to cDNA using verso cDNA synthesis kit (Thermo Fischer Scientific). The cDNA obtained was analyzed in a quantitative real-time PCR (FIG. 1).
# [4] = system: tibial fracture in C57BL/6J mice; assay: Mid-diaphysis tibial fracture healing in mice, micro-CT analysis of callus; format: in vivo
# Excerpt: 8 week old C57Bl/6J mice were subjected to mid-diaphysis tibial fracture, treated with 4-AP for 21 days, and harvested. FIG. 4A: Representative X-ray images at the end of 21 days of 4-AP treatment. FIG. 4B: Representative micro-CT images of tibia fracture on day 21. […] FIG. 4D: Graphical presentation of Micro CT analysis of bone mineral density (BMD), and bone volume density (BV/TV). Data are presented as mean±SEM (n=6). Values are significant at *p<0.05.
# Ten-week-old male C57/BL6J mice were purchased from the Jackson laboratory (Bar Harbor, ME, USA) and were maintained in a 12-h light, 12-h dark cycle at 21.1° C. to 22.8° C. After acclimatization, all mice were randomly divided in to two groups: 1) control and 2) 4-AP.
# A mid diaphysis tibial fracture was performed in ten-week-old male mice. After the mice were anesthetized with ketamine/xylazine, a 5 mm longitudinal incision will be made at the front of the proximal tibia. The mid diaphysis of the tibia will be identified, and an osteotomy will be created with a No. 11 scalpel blade preventing any comminution. A 27G hypodermic needle will be introduced into the tibial canal for intramedullary fixation. Buprenorphine was given as post-operative analgesia. X-ray images were acquired post-operatively and mice received saline or 4-AP on the same day. Control group received 100 μl of saline, and a 4-AP group received 40 μg/mouse/daily 4-AP (1.6 mg/kg) in saline intraperitoneally until day 21 post-surgery.
# For micro-CT analysis, tibia of control and 4-AP mice were dissected of soft tissue and fixed in neutral buffered formalin. μCT scanning was conducted using a Scanco vivaCT 40. […] Callus area from control and 4-AP mice tibia were assessed for bone mineral density (BMD) and percent bone volume per total volume (% BV/TV).
# Tibial fracture was performed in C57BL/6J mice, which were then treated with 4-AP for 21 days for the evaluation of fracture healing parameters. The bone mineral density and bone volume density were determined by micro-CT analysis at the end of 21 days 4-AP treatment.
# [5] = C57BL/6J mice, tibial fracture, 40 μg/mouse/daily 4-AP (1.6 mg/kg) intraperitoneally, 21 days, micro-CT, compared to saline treated controls
smiles,measurement,setting,value
"Nc1ccncc1 [4-AP, 4-aminopyridine]","BMP-2 protein (western blot, normalized with GAPDH)",[1]; day 3,increased
same,"BMP-2 protein (western blot, normalized with GAPDH)",[1]; day 7,increased
same,"BMP-2 protein (western blot, normalized with GAPDH)",[1]; day 14,increased
same,expression of BMP-2 compared with the control group,[2],significantly increased
same,"BMP-2 gene expression (fold change vs control, normalized with β-actin)",[3]; day 3,increased
same,"BMP-2 gene expression (fold change vs control, normalized with β-actin)",[3]; day 7,remained high
same,"BMP-2 gene expression (fold change vs control, normalized with β-actin)",[3]; day 14,remained high
same,bone mineral density within the callus area,[4]; [5],higher
same,bone volume density (BV/TV) within the callus area,[4]; [5],higher
same,bone fracture healing,"[4]; C57Bl/6J mice, mid-diaphysis tibial fracture, treated with 4-AP for 21 days",enhanced

# — patent US12268677B2, “4-aminopyridine (4-AP) and bone morphogenetic protein 2 (BMP-2)” (The Penn State Research Foundation, priority 2022, dated 2025)
